According to US20090012263A1, “Process for Production of (1,3-Disubstituted Indolyl)-Urea Derivatives, Intermediates Therefor, and Process for Production of the Intermediates” (KOWA COMPANY, LTD., priority 2004, published 2009):

Assay: storage stability of the intermediate
Format: physicochemical

O=C(Nc1ccc2c(c1)c(CN1CCCC1)cn2Cc1c(Cl)cccc1Cl)Oc1ccccc1 [Example 2, 5-phenyloxycarbonylamino-3-(1-pyrrolidinylmethyl)-N-[1-(2,6-dichlorophenyl)methyl]-1H-indole]
can be stored (storage stability) (room temperature under light shielding, crystalline): over 2 years

O=C(Nc1ccc2c(CN3CCCC3)cn(Cc3c(Cl)cccc3Cl)c2c1)Oc1ccccc1 [Example 4, 6-phenyloxycarbonylamino-3-(1-pyrrolidinylmethyl)-N-[1-(2,6-dichlorophenyl)methyl]-1H-indole]
stability of storage (under refrigeration and light shielding, amorphous powder): over 3 months
